Data as given in PubChem BioAssay (NCI).
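Protocol summary: plate cells (96-well), add compound at 5 concentrations, incubate 48 h, interpolate endpoints linearly. TGI is the concentration that stops growth completely.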

These compounds were tested on MDA-N (assay: DTP human tumour cell line panel, 48 h).

| SMILES | TGI |
| --- | --- |
| CN(/N=C(\C(=O)O)c1ccccc1)C1=NCCCCN1 | > 100 µM |
| CO[C@@H]1C[C@H]2[C@@H]3CC[C@H]([C@H](C)CO)[C@@]3(C)CC[C@@H]2[C@@]2(C)CC[C@H]3C[C@]312 | > 100 µM |
| Oc1ccc(-c2nc3ccc4ccccc4c3c3c2CCCC3)c(O)c1 | 39.3 µM |
| COc1ccc2c(c1)C(N)=C(c1ccccc1OC)C2=O | > 100 µM |
| COc1cc(C)c2c(c1C=O)Oc1c(c(C)c(O)c3c1C(O)OC3=O)OC2=O (stereo not given) | 43.8 µM |

These compounds were tested on SF-295 CNS (assay: DTP human tumour cell line panel, 48 h).

| SMILES | TGI |
| --- | --- |
| CN(/N=C(\C(=O)O)c1ccccc1)C1=NCCCCN1 | > 100 µM |
| CO[C@@H]1C[C@H]2[C@@H]3CC[C@H]([C@H](C)CO)[C@@]3(C)CC[C@@H]2[C@@]2(C)CC[C@H]3C[C@]312 | 85.9 µM |
| Oc1ccc(-c2nc3ccc4ccccc4c3c3c2CCCC3)c(O)c1 | > 74.1 µM |
| COc1ccc2c(c1)C(N)=C(c1ccccc1OC)C2=O | > 100 µM |
| COc1cc(C)c2c(c1C=O)Oc1c(c(C)c(O)c3c1C(O)OC3=O)OC2=O (stereo not given) | > 100 µM |

Each compound was assayed on SK-MEL-28 melanoma (assay: DTP human tumour cell line panel, 48 h).

| SMILES | TGI |
| --- | --- |
| CN(/N=C(\C(=O)O)c1ccccc1)C1=NCCCCN1 | > 100 µM |
| CO[C@@H]1C[C@H]2[C@@H]3CC[C@H]([C@H](C)CO)[C@@]3(C)CC[C@@H]2[C@@]2(C)CC[C@H]3C[C@]312 | > 100 µM |
| Oc1ccc(-c2nc3ccc4ccccc4c3c3c2CCCC3)c(O)c1 | > 50.6 µM |
| COc1ccc2c(c1)C(N)=C(c1ccccc1OC)C2=O | > 100 µM |
| COc1cc(C)c2c(c1C=O)Oc1c(c(C)c(O)c3c1C(O)OC3=O)OC2=O (stereo not given) | > 100 µM |

The compounds below were run on OVCAR-5 ovarian (assay: DTP human tumour cell line panel, 48 h).

| SMILES | TGI |
| --- | --- |
| CN(/N=C(\C(=O)O)c1ccccc1)C1=NCCCCN1 | > 100 µM |
| CO[C@@H]1C[C@H]2[C@@H]3CC[C@H]([C@H](C)CO)[C@@]3(C)CC[C@@H]2[C@@]2(C)CC[C@H]3C[C@]312 | > 100 µM |
| Oc1ccc(-c2nc3ccc4ccccc4c3c3c2CCCC3)c(O)c1 | 49.1 µM |
| COc1ccc2c(c1)C(N)=C(c1ccccc1OC)C2=O | > 100 µM |
| COc1cc(C)c2c(c1C=O)Oc1c(c(C)c(O)c3c1C(O)OC3=O)OC2=O (stereo not given) | > 100 µM |

What follows are compounds tested on IGROV1 ovarian (assay: DTP human tumour cell line panel, 48 h).

| SMILES | TGI |
| --- | --- |
| CN(/N=C(\C(=O)O)c1ccccc1)C1=NCCCCN1 | > 100 µM |
| CO[C@@H]1C[C@H]2[C@@H]3CC[C@H]([C@H](C)CO)[C@@]3(C)CC[C@@H]2[C@@]2(C)CC[C@H]3C[C@]312 | > 100 µM |
| Oc1ccc(-c2nc3ccc4ccccc4c3c3c2CCCC3)c(O)c1 | > 56.5 µM |
| COc1ccc2c(c1)C(N)=C(c1ccccc1OC)C2=O | > 100 µM |
| COc1cc(C)c2c(c1C=O)Oc1c(c(C)c(O)c3c1C(O)OC3=O)OC2=O (stereo not given) | 60.9 µM |

Each compound was assayed on NCI-H460 lung (assay: DTP human tumour cell line panel, 48 h).

| SMILES | TGI |
| --- | --- |
| CN(/N=C(\C(=O)O)c1ccccc1)C1=NCCCCN1 | > 100 µM |
| CO[C@@H]1C[C@H]2[C@@H]3CC[C@H]([C@H](C)CO)[C@@]3(C)CC[C@@H]2[C@@]2(C)CC[C@H]3C[C@]312 | 74.8 µM |
| Oc1ccc(-c2nc3ccc4ccccc4c3c3c2CCCC3)c(O)c1 | > 100 µM |
| COc1ccc2c(c1)C(N)=C(c1ccccc1OC)C2=O | > 100 µM |

These compounds were tested on COLO 205 colon (assay: DTP human tumour cell line panel, 48 h).

| SMILES | TGI |
| --- | --- |
| CN(/N=C(\C(=O)O)c1ccccc1)C1=NCCCCN1 | > 100 µM |
| CO[C@@H]1C[C@H]2[C@@H]3CC[C@H]([C@H](C)CO)[C@@]3(C)CC[C@@H]2[C@@]2(C)CC[C@H]3C[C@]312 | 35.3 µM |
| Oc1ccc(-c2nc3ccc4ccccc4c3c3c2CCCC3)c(O)c1 | 23.9 µM |
| COc1ccc2c(c1)C(N)=C(c1ccccc1OC)C2=O | > 100 µM |
| COc1cc(C)c2c(c1C=O)Oc1c(c(C)c(O)c3c1C(O)OC3=O)OC2=O (stereo not given) | > 100 µM |

What follows are compounds tested on MCF7 breast (assay: DTP human tumour cell line panel, 48 h).

| SMILES | TGI |
| --- | --- |
| CN(/N=C(\C(=O)O)c1ccccc1)C1=NCCCCN1 | > 100 µM |
| CO[C@@H]1C[C@H]2[C@@H]3CC[C@H]([C@H](C)CO)[C@@]3(C)CC[C@@H]2[C@@]2(C)CC[C@H]3C[C@]312 | 47.8 µM |
| Oc1ccc(-c2nc3ccc4ccccc4c3c3c2CCCC3)c(O)c1 | > 69.8 µM |
| COc1ccc2c(c1)C(N)=C(c1ccccc1OC)C2=O | > 100 µM |
| COc1cc(C)c2c(c1C=O)Oc1c(c(C)c(O)c3c1C(O)OC3=O)OC2=O (stereo not given) | 74 µM |

The compounds below were run on SK-MEL-2 melanoma (assay: DTP human tumour cell line panel, 48 h).

| SMILES | TGI |
| --- | --- |
| CN(/N=C(\C(=O)O)c1ccccc1)C1=NCCCCN1 | > 100 µM |
| Oc1ccc(-c2nc3ccc4ccccc4c3c3c2CCCC3)c(O)c1 | 37.6 µM |
| COc1ccc2c(c1)C(N)=C(c1ccccc1OC)C2=O | > 100 µM |

These compounds were tested on ACHN renal (assay: DTP human tumour cell line panel, 48 h).

| SMILES | TGI |
| --- | --- |
| CN(/N=C(\C(=O)O)c1ccccc1)C1=NCCCCN1 | > 100 µM |
| CO[C@@H]1C[C@H]2[C@@H]3CC[C@H]([C@H](C)CO)[C@@]3(C)CC[C@@H]2[C@@]2(C)CC[C@H]3C[C@]312 | > 100 µM |
| Oc1ccc(-c2nc3ccc4ccccc4c3c3c2CCCC3)c(O)c1 | 85 µM |
| COc1ccc2c(c1)C(N)=C(c1ccccc1OC)C2=O | > 100 µM |
| COc1cc(C)c2c(c1C=O)Oc1c(c(C)c(O)c3c1C(O)OC3=O)OC2=O (stereo not given) | > 100 µM |

What follows are compounds tested on NCI-H226 lung (assay: DTP human tumour cell line panel, 48 h).

| SMILES | TGI |
| --- | --- |
| CN(/N=C(\C(=O)O)c1ccccc1)C1=NCCCCN1 | > 100 µM |
| CO[C@@H]1C[C@H]2[C@@H]3CC[C@H]([C@H](C)CO)[C@@]3(C)CC[C@@H]2[C@@]2(C)CC[C@H]3C[C@]312 | > 100 µM |
| Oc1ccc(-c2nc3ccc4ccccc4c3c3c2CCCC3)c(O)c1 | > 100 µM |
| COc1ccc2c(c1)C(N)=C(c1ccccc1OC)C2=O | > 100 µM |
| COc1cc(C)c2c(c1C=O)Oc1c(c(C)c(O)c3c1C(O)OC3=O)OC2=O (stereo not given) | > 100 µM |

The compounds below were run on KM12 colon (assay: DTP human tumour cell line panel, 48 h).

| SMILES | TGI |
| --- | --- |
| CN(/N=C(\C(=O)O)c1ccccc1)C1=NCCCCN1 | > 100 µM |
| CO[C@@H]1C[C@H]2[C@@H]3CC[C@H]([C@H](C)CO)[C@@]3(C)CC[C@@H]2[C@@]2(C)CC[C@H]3C[C@]312 | 35.9 µM |
| Oc1ccc(-c2nc3ccc4ccccc4c3c3c2CCCC3)c(O)c1 | > 100 µM |
| COc1ccc2c(c1)C(N)=C(c1ccccc1OC)C2=O | > 100 µM |
| COc1cc(C)c2c(c1C=O)Oc1c(c(C)c(O)c3c1C(O)OC3=O)OC2=O (stereo not given) | 52.3 µM |

The compounds below were run on RXF 393 renal (assay: DTP human tumour cell line panel, 48 h).

| SMILES | TGI |
| --- | --- |
| CN(/N=C(\C(=O)O)c1ccccc1)C1=NCCCCN1 | > 100 µM |
| CO[C@@H]1C[C@H]2[C@@H]3CC[C@H]([C@H](C)CO)[C@@]3(C)CC[C@@H]2[C@@]2(C)CC[C@H]3C[C@]312 | > 100 µM |
| Oc1ccc(-c2nc3ccc4ccccc4c3c3c2CCCC3)c(O)c1 | > 84.3 µM |
| COc1ccc2c(c1)C(N)=C(c1ccccc1OC)C2=O | > 100 µM |
| COc1cc(C)c2c(c1C=O)Oc1c(c(C)c(O)c3c1C(O)OC3=O)OC2=O (stereo not given) | 96.7 µM |

Each compound was assayed on HCT-116 colon (assay: DTP human tumour cell line panel, 48 h).

| SMILES | TGI |
| --- | --- |
| CN(/N=C(\C(=O)O)c1ccccc1)C1=NCCCCN1 | > 100 µM |
| CO[C@@H]1C[C@H]2[C@@H]3CC[C@H]([C@H](C)CO)[C@@]3(C)CC[C@@H]2[C@@]2(C)CC[C@H]3C[C@]312 | > 100 µM |
| Oc1ccc(-c2nc3ccc4ccccc4c3c3c2CCCC3)c(O)c1 | 22.6 µM |
| COc1ccc2c(c1)C(N)=C(c1ccccc1OC)C2=O | > 100 µM |
| COc1cc(C)c2c(c1C=O)Oc1c(c(C)c(O)c3c1C(O)OC3=O)OC2=O (stereo not given) | > 100 µM |

The compounds below were run on SF-268 CNS (assay: DTP human tumour cell line panel, 48 h).

| SMILES | TGI |
| --- | --- |
| CN(/N=C(\C(=O)O)c1ccccc1)C1=NCCCCN1 | > 100 µM |
| CO[C@@H]1C[C@H]2[C@@H]3CC[C@H]([C@H](C)CO)[C@@]3(C)CC[C@@H]2[C@@]2(C)CC[C@H]3C[C@]312 | > 100 µM |
| Oc1ccc(-c2nc3ccc4ccccc4c3c3c2CCCC3)c(O)c1 | > 72 µM |
